Values quoted from earlier work, collected in patent US9221747B2, “Method of making fatty acid N-acylalkanolamines” (Iowa State University Research Foundation, Inc., priority 2012, dated 2015).

Conditions: at −20° C.

Row | SMILES | solubility in methanol [g/100 g methanol]
1 | CCCCC/C=C\C/C=C\CCCCCCCC(=O)O [linoleic acid] | 233
2 | CCCCCCCC/C=C\CCCCCCCC(=O)O [oleic acid] | 4.02
